These are literature values, as cited in patent publication US20210228483A1, “LOW GLYCEMIC GUMMY COMPOSITION AND METHODS OF MAKING AND USING THEREOF” (Seattle Gummy Company, priority 2018, published 2021).

The conditions of data set [1]: in vivo.
In the next data set the test system is blood glucose levels. To be noted: as shown in FIG. 3 (trehalose) and FIG. 4 (isomaltulose).

On to `OC[C@H]1O[C@H](OC[C@H]2OC(O)(CO)[C@@H](O)[C@@H]2O)[C@H](O)[C@@H](O)[C@@H]1O` (stereo partly shown) [isomaltulose], for which the “GI value (glycemic index)” value in data set [1] was “about 30”. Moreover, the “spike in glucose levels” value with blood glucose levels was “does not cause a spike in glucose levels”.

Regarding `OC[C@H]1O[C@@](CO)(O[C@H]2O[C@H](CO)[C@@H](O)[C@H](O)[C@H]2O)[C@@H](O)[C@@H]1O` [sucrose, reference compound], the “GI value (glycemic index)” value in data set [1] is 63.

In the case of `OC[C@H]1O[C@H](O[C@H]2O[C@H](CO)[C@@H](O)[C@H](O)[C@H]2O)[C@H](O)[C@@H](O)[C@@H]1O` [trehalose], the “spike in glucose levels” value in the data set with blood glucose levels is on record as “does not cause a spike in glucose levels”.
